In patent US20240115875A1, “Systems, Methods, and Substances for Controlled Endoluminal Energy Application” (Dream Big Biotechnologies B.V., priority 2021, published 2024):

What was measured:
tumor tissue [1] = details: input of the simulation, cited from earlier work; for Tumor uptake: assumed tissue uptake; for Molar extinction coefficient ϵ: at the wavelength given with each photosensitizer (630-690 nm)
tumor tissue [2] = assay: Estimated PDT threshold doses for several photosensitizers (photodynamic threshold model); details: in tumor, from uptake and molar weight
Experimental: In these simulations, we assumed intravenous administration of a light-absorbing drug and the placement of a light emitter in the endovascular system at the site of tumor encroachment around it. Light absorbed by the photosensitizer was assumed to result in the local creation of short-lived cytotoxic radicals, causing cell death e.g. hemorrhagic tissue necrosis and apoptosis. To quantify the attainable effects, light-dose escalation studies were performed using Monte Carlo light propagation simulations (FullMonteCUDA) (“High-performance, robustly verified Monte Carlo simulation with FullMonte,” J. Biomed. Opt. 23(8), 085001 (2018)). The use of the photosensitizer BPD-MA mediated PDT was initially investigated in a simple “cube and tube” geometry representing the pancreas and a vessel traversing its center. The multilayered tube represented the vascular wall layers, intima, media and adventitia having an air-filled balloon with a linear line source in the center. […] Simulation properties were assigned as described above and PDT activation energies were escalated over the range of 10-100 J cm^−1 diffuser length, and the anticipated threshold dose in mJ·cm^−3 and radii of necrosis were estimated based on the photodynamic threshold model introduced by Patterson M, Wilson B C, Graff R: In vivo test of the concept of photodynamic threshold dose in normal rat liver photosensitized by aluminum chlorosulfunated phthalocyanine. Photochem Photobiol, 51(3): 343-349, 1990.
The pancreatic model is shown in FIG. 7A comprising a 4×4×5 cm cube, one half is assigned with optical properties of normal pancreatic tissue and the other half with those of cancerous pancreatic tissues. Running through the cube's center is a blood vessel made up of three layers, intima, media, adventitia, with assigned properties from the literature for aortic tissues. An initial dose-escalation simulation investigated if an adequate fluence [J·cm^−2] can be delivered through the vessel wall to create a surgically sufficiently large circumferential necrotic margin (mm) surrounding the vessel, based on the photosensitizer accumulation and the sensitizer's molar extinction coefficient. The vessel's inner diameter and wall thickness were set to 7.0 mm and 1.30 mm, respectively. The energy emitting source was cylindrical in shape with a length of 20 mm and the irradiance at the intima surface was fixed at 200 mW·cm^−2. The exposure times escalated to deliver 10 to 100 J total energy. An example of the absorbed energy density as a function of radius from the vessel center is shown in FIG. 7B, with an estimated necrotic margin ranging from […]. The subsequent necrotic clearing of viable tumor tissue from the adventitia is predicted based on the threshold model for common photosensitizers, see Tables 1 and 2.

[3] = test system: porcine pancreas, splenic vein and artery; assay: In-vivo dose escalation in healthy porcine, endovascular balloon-catheter PDT, 48h CT and histopathology
Experimental: The performance of Monte Carlo simulations determined that the photosensitizer verteporfin appears to be a suitable photosensitizer and that perivascular necrosis can occur when irradiating at relevant light dose ranges in a clinically acceptable time range of several minutes. In-vivo experiments were carried out in healthy porcine (n=7) delivering light irradiation from an endovascular balloon-catheter laser probe.
The irradiating balloon catheter was placed in the splenic vein (crosshair) and an increasingly large hypodense margin, interpreted as PDT induced necrosis, can be observed for increasing doses.
In FIG. 12A, the pancreas can be observed with the splenic vein, artery, and the approximate location of the irradiating balloon catheter. Radially extending into the pancreas is a circumferential margin of necrosis (dotted line and arrows, circa 10 mm).

[4] = test system: porcine pancreas and target vessels (splenic, hepatic, superior mesenteric artery)
Experimental: Five large white porcine (Sus scrofa domesticus), weighing between 25-43 kg, were used as animal model, because the anatomy of the porcine pancreas and its vasculature closely resembles that of the human. Animals were handled according to the European Directive 2010/63 and French laws concerning animal protection in laboratories.
Following the intravascular procedure, porcine recovered from anesthesia and were housed for a survival period of 24 hours up to one week. After the survival period the sedation protocol above was repeated and general anesthesia was induced using intravenous (18 G Intravenous catheter in-ear vein) propofol 3 mg/kg, followed by orotracheal intubation and maintained with rocuronium 0.8 mg/kg along with inhaled isoflurane 2%. At the end of the experiment, animals were euthanized with an intravenous injection of pentobarbital 40 mg/kg IV (Exagon ND, Axience).
To counteract possible effects of BPD-MA on the porcine blood pressure, the antihistamine dexchlorpheniramine was given the days before and immediately prior to the start of photosensitizer infusion. Polaramine® was administered at 2 mg p.o. BID to TID the day before and Polaramine® 5 mg IV (slow bolus) 30 to 60 minutes before photosensitizer injection. Methylprednisolone SoluMedrol®120 (3 mg kg-1) was administered also IV (slow bolus) 30 to 60 minutes before photosensitizer injection. […]
To visualize the pancreas and its target vessels for treatment planning, non-enhanced and contrast-enhanced CT scans were carried out shortly before treatment, in the early arterial and early portal venous phase. […] A 3D vascular roadmap was obtained via software manipulation (syngo.via, Siemens Healthineers AG, Germany) and the position, morphology and dimensions of the target vessels were assessed and used for later co-localization during the angiography-guided procedure and placement of a suitably sized PDT light source, being a prototype irradiating balloon catheter. […]

[5] = In-vivo porcine model, heart rate and blood pressure during photosensitizer infusion; parameters: species or system Sus scrofa domesticus; details: for changes in blood pressure or heart rate during the injection: 5% i.v. dextrose drip
Experimental: The preclinical experiments in pigs required some precautions.
[…] […] The animal gradually recovered after 10 to 20 min and stabilized to normal heart rates.

| Molecule | Tumor uptake (tumor tissue [1]) | Molar extinction coefficient ϵ (tumor tissue [1]) | Photosensitizer concentration (tumor tissue [2]) | radius of apparent perivascular circumferential tissue necrosis ([3]; 0.4-3.2 mg/kg, light irradiation 8-25 minutes, 48h contrast-enhanced CT and histopathology, n=7) | artery and vein wall histopathology ([3]; L-size dose 1.6 mg/kg, 48h post PDT) | circumferential margin of necrosis extending into the pancreas, histopathology ([3]; L-size dose 1.6 mg/kg, 48h post PDT, H&E and EVG) | hypodense area around the target vessel on contrast-enhanced CT, extending outwards from the outer wall of the vessel (possible PDT-induced necrosis) ([4]; 0.4-1.6 mg·kg^−1 i.v., 690 nm, 150 mW·cm^−2, 75-225 J·cm^−2, CT 24 h to one week) | splenic arterial wall histopathology ([4]; in vivo) | vessel structural integrity on contrast-enhanced CT ([4]; in vivo) | changes in heart rate during injection ([5]; first porcine, i.v. saline drip, without pre-medications, injection stopped at 0.2 mg kg^−1) | changes in blood pressure or heart rate during the injection ([5]; porcine 2-3, pre-medicated excluding heparin, 0.4 mg·kg^−1) | changes in blood pressure or heart rate during the injection ([5]; porcine 4-5, pre-medicated including heparin, 1.6 mg·kg^−1) |
| --- | --- | --- | --- | --- | --- | --- | --- | --- | --- | --- | --- | --- |
| Photofrin | 8.1 mg/g | 1,170 M^−1 cm^−1 | 6.8 · 10^−6 M | – | – | – | – | – | – | – | – | – |
| benzoporphyrin derivative monoacid ring A [Verteporfin] | 23.9 mg/g | 33,000 M^−1 cm^−1 | 3.3 · 10^−5 M | 2-15 mm | intact vessel unruptured walls albeit with atrophic muscular cells and ulcerated endothelial cells | circa 10 mm | 2-6 mm | endothelial loss and necrotic cellular tissues were observed, but the extracellular matrix containing collagen and elastin was preserved in some cases | no perforations, ruptures, and bleedings were observed | Immediate changes occurred in the heart rate, decreasing to a degree that adrenaline was administered to stabilize the animal | No changes occurred in blood pressure or heart rate during the injection | No changes occurred in blood pressure or heart rate during the injection |
| c1ccc2c(c1)-c1nc-2nc2[nH]c(nc3nc(nc4[nH]c(n1)c1ccccc41)-c1ccccc1-3)c1ccccc21 [Phthalocyanine] | 12.3 mg/g | – | 2.3 · 10^−5 M | – | – | – | – | – | – | – | – | – |
| C=Cc1c(C)c2cc3nc(c(CC(=O)N[C@@H](CC(=O)O)C(=O)O)c4[nH]c(cc5nc(cc1[nH]2)C(C)=C5CC)c(C)c4C(=O)O)[C@@H](CCC(=O)O)[C@@H]3C [Talaporfin] | 1.62 mg/g | 40,000 M^−1 cm^−1 | 2.2 · 10^−6 M | – | – | – | – | – | – | – | – | – |
| Oc1cccc(-c2c3nc(c(-c4cccc(O)c4)c4ccc([nH]4)c(-c4cccc(O)c4)c4nc(c(-c5cccc(O)c5)c5ccc2[nH]5)CC4)C=C3)c1 [Temoporfin, 5,10,15,20-Tetra(m-hydroxyphenyl)chlorin] | 0.5 mg/g | – | – | – | – | – | – | – | – | – | – | – |
